Experimental data reported in publication PMC6151589, “Identification of Optically Active Pyrimidine Derivatives as Selective 5-HT2C Modulators” (Molecules : A Journal of Synthetic Chemistry and Natural …, 2017).
Where two headings read alike, the source gives them in different places.

Assays:
Format in all cases: binding
5-HT2C [1] = target: T1, 5-HT2C (Homo sapiens, UniProt P28335); assay: [3H]mesulergine displacement, membranes
T1 construct: gene HTR2C; human recombinant receptor; crude membrane fractions of transfected cells (CHO-K1; HEK293 or CHO)
T1 sequence (P28335 33-458): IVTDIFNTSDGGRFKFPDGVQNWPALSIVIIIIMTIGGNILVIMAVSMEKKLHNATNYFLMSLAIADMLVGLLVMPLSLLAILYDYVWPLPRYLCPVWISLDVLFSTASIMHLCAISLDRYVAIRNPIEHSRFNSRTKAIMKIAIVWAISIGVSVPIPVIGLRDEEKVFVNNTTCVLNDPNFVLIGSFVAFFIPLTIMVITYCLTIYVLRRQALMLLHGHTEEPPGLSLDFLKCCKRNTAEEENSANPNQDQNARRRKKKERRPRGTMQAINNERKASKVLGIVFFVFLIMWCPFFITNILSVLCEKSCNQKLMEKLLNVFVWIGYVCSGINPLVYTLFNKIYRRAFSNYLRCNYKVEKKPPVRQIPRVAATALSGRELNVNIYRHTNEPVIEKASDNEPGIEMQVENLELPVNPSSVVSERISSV
Text: [3H]mesulergine displacement, membranes on 5-HT2C

5-HT2B = target: T2, 5-HT2B (Homo sapiens, UniProt P41595); assay: radioligand displacement, membranes
T2 construct: gene HTR2B; human recombinant receptor; crude membrane fractions of transfected HEK293 or CHO cells
T2 sequence (P41595 whole entry): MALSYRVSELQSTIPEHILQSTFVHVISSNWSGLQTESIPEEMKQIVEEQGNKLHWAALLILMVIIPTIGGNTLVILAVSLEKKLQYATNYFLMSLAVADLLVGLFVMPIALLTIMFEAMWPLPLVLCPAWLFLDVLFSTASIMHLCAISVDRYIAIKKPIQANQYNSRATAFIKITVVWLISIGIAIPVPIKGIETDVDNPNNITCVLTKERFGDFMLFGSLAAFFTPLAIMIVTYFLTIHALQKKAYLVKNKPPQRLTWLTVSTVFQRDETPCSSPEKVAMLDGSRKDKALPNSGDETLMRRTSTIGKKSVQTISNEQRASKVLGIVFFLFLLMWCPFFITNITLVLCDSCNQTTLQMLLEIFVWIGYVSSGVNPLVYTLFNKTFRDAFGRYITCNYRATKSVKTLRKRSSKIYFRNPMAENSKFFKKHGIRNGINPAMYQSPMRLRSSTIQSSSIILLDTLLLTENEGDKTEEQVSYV
Text: radioligand displacement, membranes on 5-HT2B

5-HT2A = target: T3, 5-HT2A (Homo sapiens, UniProt P28223); assay: radioligand displacement, membranes
T3 construct: gene HTR2A; human recombinant receptor; crude membrane fractions of transfected HEK293 or CHO cells
T3 sequence (P28223 whole entry): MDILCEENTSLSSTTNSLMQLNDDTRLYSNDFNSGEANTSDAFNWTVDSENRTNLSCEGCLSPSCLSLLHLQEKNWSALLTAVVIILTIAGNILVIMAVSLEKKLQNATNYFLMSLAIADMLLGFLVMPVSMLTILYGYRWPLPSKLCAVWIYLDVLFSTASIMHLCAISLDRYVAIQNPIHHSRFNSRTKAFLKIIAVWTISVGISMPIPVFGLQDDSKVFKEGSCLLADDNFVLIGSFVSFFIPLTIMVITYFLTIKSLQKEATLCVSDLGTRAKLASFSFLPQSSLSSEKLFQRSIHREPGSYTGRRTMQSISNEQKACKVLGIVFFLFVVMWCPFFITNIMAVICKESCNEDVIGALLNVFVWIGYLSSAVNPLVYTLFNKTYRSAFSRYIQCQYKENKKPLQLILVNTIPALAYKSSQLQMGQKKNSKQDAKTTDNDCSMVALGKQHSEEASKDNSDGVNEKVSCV
Text: radioligand displacement, membranes on 5-HT2A

5-HT2C [2] = target: T1, 5-HT2C; assay: [3H]mesulergine displacement, membranes; settings: read-out: 5-HT2B / Ki

Structure (SMILES)	Ki (5-HT2C [1]) [µM]	Ki (5-HT2B) [µM]	Ki (5-HT2A) [µM]	Ki (5-HT2C [2]) [µM]
CC(Oc1nc(N2CCNC[C@H]2C)ncc1F)c1cccc(F)c1 (mixture of isomers) [4d, 5-Fluoro-4-(1-(3-fluorophenyl)ethoxy)-2-((R)-2-methylpiperazin-1-yl)pyrimidine]	0.0027	0.0048	0.213	
CC(Oc1nc(N2CCNC[C@H]2C)ncc1F)c1ccc(F)cc1 (mixture of isomers) [4e, 5-Fluoro-4-(1-(4-fluorophenyl)ethoxy)-2-((R)-2-methylpiperazin-1-yl)pyrimidine]	0.0045	0.01	0.426	
CC(CCc1cccc(F)c1)Oc1nc(N2CCNC[C@H]2C)ncc1F (mixture of isomers) [4h, 5-Fluoro-4-((4-(3-fluorophenyl)butan-2-yl)oxy)-2-((R)-2-methylpiperazin-1-l)pyrimidine]	0.014	0.016	0.17	
CC(CCc1ccc(F)cc1)Oc1nc(N2CCNC[C@H]2C)ncc1F (mixture of isomers) [4i, 5-Fluoro-4-((4-(4-fluorophenyl)butan-2-yl)oxy)-2-((R)-2-methylpiperazin-1-yl)pyrimidine]	0.012	0.022	0.173	
C[C@@H]1CNCCN1c1ncc(F)c(OCc2ccccc2F)n1 [4a, (R)-5-Fluoro-4-((2-fluorobenzyl)oxy)-2-(2-methylpiperazin-1-yl)pyrimidine]	0.031	0.056	0.08	
C[C@@H]1CNCCN1c1ncc(F)c(OCc2cccc(F)c2)n1 [4b, (R)-5-Fluoro-4-((3-fluorobenzyl)oxy)-2-(2-methylpiperazin-1-yl)pyrimidine]	0.0051	0.014	0.043	
C[C@@H]1CNCCN1c1ncc(F)c(OCc2ccc(F)cc2)n1 [4c, (R)-5-Fluoro-4-((4-fluorobenzyl)oxy)-2-(2-methylpiperazin-1-yl)pyrimidine]	0.022	0.014	0.051	
C[C@@H]1CNCCN1c1ncc(F)c(OCCCc2cccc(F)c2)n1 [4f, (R)-5-Fluoro-4-(3-(3-fluorophenyl)propoxy)-2-(2-methylpiperazin-1-yl)pyrimidine]	0.02	0.024	0.138	
C[C@@H]1CNCCN1c1ncc(F)c(OCCCc2ccc(F)cc2)n1 [4g, (R)-5-Fluoro-4-(3-(4-fluorophenyl)propoxy)-2-(2-methylpiperazin-1-yl)pyrimidine]		0.022	0.09	0.022
